# ChEMBL document CHEMBL1149799, “Bioactive peroxides as potential therapeutic agents” (Eur J Med Chem, 2008)
# Experiments:
# [1] = Cytotoxicity against human P833 cells; format: functional, cell-based
# SK-BR-3 = assay: Cytotoxicity against human SKBR3 cells; format: functional, cell-based
# PSN1 = assay: Cytotoxicity against human PSN1 cells; format: functional, cell-based
# T98G = assay: Cytotoxicity against human T98G cells; format: functional, cell-based
# A549 = assay: Cytotoxicity against human A549 cells; format: functional, cell-based; settings: Homo sapiens, A549; for EC50: read-out: ED50 (the source's name)
# [2] = Cytotoxicity against human H116 cells; format: functional, cell-based
# [3] = Cytotoxicity against human […] cells; format: functional; settings: read-out: ED50 (the source's name)
# KB = assay: Cytotoxicity against human KB cells; format: functional, cell-based; settings: Homo sapiens, KB; read-out: ED50 (the source's name)
# P388 = assay: Cytotoxicity against mouse P388 cells; format: functional, cell-based; settings: Mus musculus, P388; for EC50: read-out: ED50 (the source's name)
# PC-3 = assay: Cytotoxicity against human PC3 cells; format: functional, cell-based
# [4] = Cytotoxicity against human HERP3B cells; format: functional
# HT-29 = assay: Cytotoxicity against human HT29 cells; format: functional, cell-based; settings: Homo sapiens, HT-29
# [5] = system: Vesicular stomatitis virus; assay: Antiviral activity against Vesicular stomatitis virus; format: functional, organism-based
# Human alphaherpesvirus 1 = assay: Antiviral activity against herpes simplex virus type-1; format: functional, organism-based
# [6] = Cytotoxicity against mouse B16-F1cells; format: functional, cell-based; settings: B16-F1
# WEHI-164 = assay: Cytotoxicity against mouse WEHI164 cells; format: functional, cell-based
# [7] = Cytotoxicity against human RXF486L cells; format: functional, cell-based; settings: RXF 486L
# [8] = Cytotoxicity against human MAXF401NL cells; format: functional, cell-based; settings: MAXF 401NL
# [9] = Cytotoxicity against human LXF529L cells; format: functional, cell-based; settings: LXF 529L
# [10] = Cytotoxicity against human MAXF642NL cells; format: functional, cell-based
# [11] = Cytotoxicity against human GXF251L cells; format: functional, cell-based; settings: GXF 251L
# [12] = Cytotoxicity against human UXF1138L cells; format: functional, cell-based; settings: UXF 1138L
# [13] = Cytotoxicity against human NCI60 cells; format: functional
# [14] = Cytotoxicity against human CFUGM; format: functional; settings: CFU-GM
# [15] = Cytotoxicity against mouse Ehrlich Ascites carcinoma by clonogenic assay; format: functional
# [16] = Cytotoxicity against mouse Ehrlich Ascites carcinoma by […] assay; format: functional
# Plasmodium falciparum = assay: Antimalarial activity against Plasmodium falciparum W2; format: functional, organism-based
smiles,measurement,setting,value
CCCC[C@H](CC)C[C@]1(CC)C=C(CC)[C@H](CC(=O)O)OO1 [HATERUMADIOXIN B],IC50,[1],0.0055 µg/mL
CC(C)(OO)C1=C[C@@]23CCC4C(C)(C)CCC[C@]4(C)[C@H]2C[C@H]1OO3 (stereo partly specified),IC50,SK-BR-3,> 5 µg/mL
same,IC50,PSN1,5 µg/mL
same,IC50,T98G,> 5 µg/mL
same,IC50,A549,5 µg/mL
same,IC50,[2],2.5 µg/mL
CC(C)/C(=C\COO)CC[C@@H](C)[C@H]1CC[C@@H]2[C@@H]1CC[C@H]1[C@H]2CC=C2C[C@@H](O)CC[C@@]21C,EC50,[3],5 µg/mL
same,EC50,KB,2.2 µg/mL
same,EC50,P388,0.5 µg/mL
same,EC50,A549,2.2 µg/mL
COc1ccc(OOc2ccc(OC)c3cc4c(cc23)[C@]2(C)CCC(=O)c3coc(c32)C4=O)c2cc3c(cc12)[C@@]1(C)CCC(=O)c2coc(c21)C3=O,Activity,PC-3,56
same,Activity,[4],5
C[C@H](C(=O)O)[C@@H]1CC[C@@](C)(CC[C@@]2(O)[C@H](C)CC[C@@]3(C)C(C)(C)CCC[C@]23C)OO1 [MYCAPEROXIDE B],IC50,HT-29,0.5 µg/mL
same,IC50,[5],0.25 µg/mL
same,IC50,P388,0.5 µg/mL
same,IC50,Human alphaherpesvirus 1,0.25 µg/mL
same,IC50,A549,0.5 µg/mL
COC(=O)C[C@H]1OO[C@](C)(C/C(C)=C/C=C/Cc2ccccc2)C[C@H]1C [CAPUCINOATE A],IC50,[6],0.012 µg/mL
CC(=O)O[C@H]1C(=O)[C@@]2(C)[C@H]([C@H](OC(=O)c3ccccc3)[C@]3(O)C[C@H](OC(=O)[C@H](O)[C@@H](NC(=O)c4ccccc4)c4ccccc4)C(C)=C1C3(C)C)[C@]1(OC(C)=O)CO[C@@H]1C[C@@H]2O [PACLITAXEL],Activity,PC-3,80
same,Activity,[4],85
CCCCC(CC)C/C(C)=C/[C@@]1(CC)C[C@@H](CC)[C@@H](CC(=O)OC)OO1 (stereo partly specified),IC50,WEHI-164,9.5 µg/mL
CCCCC[C@@]1(CC)C=C(CC)[C@@H](CC(=O)OC)OO1,IC50,[7],> 10 µg/mL
same,IC50,[8],> 10 µg/mL
same,IC50,[9],> 10 µg/mL
same,IC50,[10],> 10 µg/mL
same,IC50,[11],> 10 µg/mL
same,IC50,[12],> 10 µg/mL
COC(=O)C[C@H]1OO[C@](C)(C/C(C)=C/C(C)=C/Cc2ccccc2)C[C@H]1C [CAPUCINOATE B],IC50,[6],0.012 µg/mL
CC1(C)CC(C23C=CC(CO)(CCC2)OO3)CCC1Br (stereo unspecified) [MAJAPOLENES A],GI50,[13],0.4 µM
same,TGI,[13],0.9 µM
same,CC50,[13]; read-out: LC50 (the source's name),2.8 µM
CC/C=C/C(CC)C/C(C)=C/[C@]1(CC)C[C@H](CC)[C@H](CC(=O)OC)OO1 (stereo partly specified) [PLAKORTIDE H],IC50,WEHI-164,7.1 µg/mL
CCCCCC[C@@]1(CC)C=C(CC)[C@@H](CC(=O)OC)OO1,IC50,[7],14.4 µg/mL
same,IC50,[8],14.9 µg/mL
same,IC50,[9],7.7 µg/mL
same,IC50,[10],7.2 µg/mL
same,IC50,[11],8.3 µg/mL
same,IC50,[12],14.1 µg/mL
C[C@@H]1CC[C@H]2[C@@H](C)C(=O)O[C@@H]3O[C@@]4(C)CC[C@@H]1[C@]32OO4 [ARTEMISININ],IC50,[14],385 µM
same,IC50,[15],> 1000 µM
same,IC50,[16],> 723 µM
C=C(C)[C@@H](CC)CC[C@@H](C)[C@H]1CC[C@@H]2[C@@H]1CC[C@H]1[C@H]2[C@@H](OO)C=C2C[C@@H](O)CC[C@@]21C,EC50,[3],1 µg/mL
same,EC50,KB,1 µg/mL
same,EC50,P388,0.4 µg/mL
same,EC50,A549,0.5 µg/mL
CCC/C=C/[C@]1(CC)C[C@H](CC)[C@H](CC(=O)O)OO1 [PLAKORTIDE L],IC50,Plasmodium falciparum,0.57 µg/mL
